Legend:
E coli O157H7 = experiment: Disc diffusion, zones of inhibition in culture medium; format: cell-based, Escherichia coli; settings: A = E coli O157H7, average of four repetitions
Procedure: (§1) […]. Select mutants resistant to the antibiotic rifampicin (R+) to eliminate the interference of the native microbial flora of Hibiscus acid and derivatives (Castro-Rosas and Escartín, 2000). Maintain the R+ strains at 4-7° C. on blood-based agar (ABS, Merck®, Germany) with biweekly transfers, activating tripticasein soy broth (CST, Bioxon®, Mexico) with incubation at 35° C./24 h.
(§2) Prepare cultures of each one of the R+ study bacteria in tubes of 13×100 mm containing 3 ml of Tripticasein Soy Broth (TSB) incubating at 35° C. for 24 hours. Subsequently, centrifuge the cultures at 3500 rpm for 20 minutes. Then discard the supernatant and resuspend the cell pack by adding 3 ml of sterile isotonic saline solution (ISS) and agitate in vortex for 10 seconds. Repeat the previous procedure two more times. Subsequently, dilute each culture of the washed strains in a decimal proportion with ISS.
(§3) From the dry fractions (collections) prepare aqueous solutions using a solution of Polysorbate 80:water that was previously prepared in a ratio of 20:80. To this solution of polysorbate 80:water, add each dry fraction or chromatographic collection separately in a 1:9 ratio, in clean jars.
(§4) Separately, place 100 μL of the first dilution of the washed and diluted cultures on boxes of Agar Soya Tripticasa (AST) supplemented with 100 mg/L of the antibiotic rifampin; distribute the inoculum over the entire surface of the agar using the surface extension technique. Place on the inoculated boxes, separately, filter paper discs of a size of 0.5 cm and on the disks place aliquots of 10 μL of the solution of the chromatographic fractions. Perform four repetitions for each treatment. After the aliquots of the fractions or collections are absorbed by the agar, incubate the culture boxes at 35° C. for 24 hours.

E. coli enteroinvasive = experiment: as above; format: cell-based, Escherichia coli; settings: B = E. coli enteroinvasive, average of four repetitions
Procedure: as §1, §2, §3, §4

E. coli enterotoxigenic = experiment: as above; format: cell-based, Escherichia coli; settings: C = E. coli enterotoxigenic, average of four repetitions
Procedure: as §1, §2, §3, §4

E. coli enteropathogenic = experiment: as above; format: cell-based, Escherichia coli; settings: D = E. coli enteropathogenic, average of four repetitions
Procedure: as §1, §2, §3, §4

Shigella flexneri = experiment: as above; format: cell-based; settings: H = Shigella flexneri, average of four repetitions
Procedure: as §1, §2, §3, §4

Shigella sonnei = experiment: as above; format: cell-based; settings: G = Shigella sonnei, average of four repetitions
Procedure: as §1, §2, §3, §4

Listeria monocytogenes = experiment: as above; format: cell-based; settings: I = Listeria monocytogenes, average of four repetitions
Procedure: as §1, §2, §3, §4

Staphylococcus aureus = experiment: as above; format: cell-based; settings: K = Staphylococcus aureus, average of four repetitions
Procedure: as §1, §2, §3, §4

Pseudomonas aeruginosa = experiment: as above; format: cell-based; settings: column L, average of four repetitions
Procedure: as §1, §2, §3, §4

Salmonella choleraesuis = experiment: as above; format: cell-based; settings: column F, average of four repetitions
Procedure: as §1, §2, §3, §4

[1] = test system: Salmonella Typhimurium R+; experiment: as above; format: cell-based; settings: E = Salmonella Typhimurium R+ (resistant to 14 antibiotics), average of four repetitions
Procedure: as §1, §2, §3, §4

V. cholerae O1 = experiment: as above; format: cell-based; settings: M = V. cholerae O1, average of four repetitions
Procedure: as §1, §2, §3, §4

L. monocytogenes scott A = experiment: as above; format: cell-based, Listeria monocytogenes; settings: J = L. monocytogenes scott A, average of four repetitions
Procedure: as §1, §2, §3, §4

[2] = test system: 13 different microorganisms; experiment: Antimicrobial effect in culture medium, whole panel; format: cell-based; settings: against the control; all study microorganisms
Procedure: as §1, §2
From the dry fractions (collections) prepare aqueous solutions using a solution of Polysorbate 80:water that was previously prepared in a ratio of 20:80. To this solution of polysorbate 80:water, add each dry fraction or chromatographic collection separately in a 1:9 ratio, in clean jars. […]

| SMILES | Zones of inhibition (E coli O157H7) [mm] | Zones of inhibition (E. coli enteroinvasive) [mm] | Zones of inhibition (E. coli enterotoxigenic) [mm] | Zones of inhibition (E. coli enteropathogenic) [mm] | Zones of inhibition (Shigella flexneri) [mm] | Zones of inhibition (Shigella sonnei) [mm] | Zones of inhibition (Listeria monocytogenes) [mm] | Zones of inhibition (Staphylococcus aureus) [mm] | Zones of inhibition (Pseudomonas aeruginosa) [mm] | Zones of inhibition (Salmonella choleraesuis) [mm] | Zones of inhibition [1] [mm] | Zones of inhibition (V. cholerae O1) [mm] | Zones of inhibition (L. monocytogenes scott A) [mm] | antimicrobial effect (zone of inhibition, in words) [2] |
| --- | --- | --- | --- | --- | --- | --- | --- | --- | --- | --- | --- | --- | --- | --- |
| COC(=O)[C@@]1(O)CC(=O)O[C@@H]1C(=O)O [Compound 2, mono ester methyl of hibiscus acid] | 10 | 10 | 10 | 10 | 10 | 10 | 8 | 10 | 8 | 10 | 10 | 12 | 8 | – |
| CCOC(=O)[C@H]1OC(=O)C[C@]1(O)C(=O)OCC [Compound 5, di-ester ethyl of hibiscus acid] | 6 | 6 | 6 | 6 | 6 | 6 | 6 | 6 | 6 | 6 | 6 | 8 | 6 | – |
| COC(=O)[C@H]1OC(=O)C[C@]1(O)C(=O)OC [Compound 3, di-ester methyl of hibiscus acid] | 8 | 8 | 8 | 8 | 8 | 8 | 8 | 8 | 8 | 8 | 8 | 10 | 8 | – |
| O=C1C[C@](O)(C(=O)O)[C@@H](C(=O)O)O1 [Compound 1, hibiscus acid] | 10 | 12 | 10 | 11 | 10 | 10 | 10 | 10 | 10 | 10 | 12 | 14 | 10 | maximum zone of inhibition |
| CCOC(=O)C[C@](O)(C(=O)OCC)[C@@H](O)C(=O)OCC [Compound 6, tri-ethyl ester of hydroxycitric acid] | 5 | 5 | 5 | 5 | 5 | 5 | 5 | 5 | 5 | 5 | 5 | 6 | 5 | lowest |
| CCOC(=O)[C@@]1(O)CC(=O)O[C@@H]1C(=O)O [Compound 4, mono ester ethyl of hibiscus acid] | 6 | 6 | 6 | 6 | 6 | 6 | 6 | 6 | 6 | 6 | 6 | 8 | 6 | – |

— patent publication US10849322B2, “Use of hibiscus acid and derivatives thereof as antimicrobials against antibiotic-resistant and non-antibiotic-resistant microorganisms” (UNIVERSIDAD AUTONOMA DEL ESTADO DE HIDALGO, priority 2015, dated 2020)
